From patent US10011578B2, “Compounds for stabilizing ryanodine receptors from aberrant levels of calcium release” (Rosalind Franklin University of Medicine and Science, priority 2013, dated 2018)
Entries after “also recorded” stand apart in the source; their conditions may differ.

Key:
[1] = Brain/plasma ratio, brain levels in vivo; conditions: for Kp: brain and plasma
Log P (Table 1) = format: physicochemical
[2] = Aqueous solubility at pH 7.4; format: physicochemical
[3] = target: T1, RyR (RyR2-expressing N2A cell line) (Mus musculus, UniProt E9Q401); test: RyR-evoked (caffeine) calcium response in N2A cells, 2-photon fura-2 imaging; format: cell-based; conditions: for effect on caffeine-stimulated Ca^2+ release compared with dantrolene: 10 μM; for Ca^2+ Inc (Ca^2+ increase over baseline): caffeine-stimulated, compounds tested at 10 μM
T1 construct: tested using a RyR2-expressing N2A cell line; host or cells: N2a (Neuro-2a) cells
T1 sequence (E9Q401 whole entry): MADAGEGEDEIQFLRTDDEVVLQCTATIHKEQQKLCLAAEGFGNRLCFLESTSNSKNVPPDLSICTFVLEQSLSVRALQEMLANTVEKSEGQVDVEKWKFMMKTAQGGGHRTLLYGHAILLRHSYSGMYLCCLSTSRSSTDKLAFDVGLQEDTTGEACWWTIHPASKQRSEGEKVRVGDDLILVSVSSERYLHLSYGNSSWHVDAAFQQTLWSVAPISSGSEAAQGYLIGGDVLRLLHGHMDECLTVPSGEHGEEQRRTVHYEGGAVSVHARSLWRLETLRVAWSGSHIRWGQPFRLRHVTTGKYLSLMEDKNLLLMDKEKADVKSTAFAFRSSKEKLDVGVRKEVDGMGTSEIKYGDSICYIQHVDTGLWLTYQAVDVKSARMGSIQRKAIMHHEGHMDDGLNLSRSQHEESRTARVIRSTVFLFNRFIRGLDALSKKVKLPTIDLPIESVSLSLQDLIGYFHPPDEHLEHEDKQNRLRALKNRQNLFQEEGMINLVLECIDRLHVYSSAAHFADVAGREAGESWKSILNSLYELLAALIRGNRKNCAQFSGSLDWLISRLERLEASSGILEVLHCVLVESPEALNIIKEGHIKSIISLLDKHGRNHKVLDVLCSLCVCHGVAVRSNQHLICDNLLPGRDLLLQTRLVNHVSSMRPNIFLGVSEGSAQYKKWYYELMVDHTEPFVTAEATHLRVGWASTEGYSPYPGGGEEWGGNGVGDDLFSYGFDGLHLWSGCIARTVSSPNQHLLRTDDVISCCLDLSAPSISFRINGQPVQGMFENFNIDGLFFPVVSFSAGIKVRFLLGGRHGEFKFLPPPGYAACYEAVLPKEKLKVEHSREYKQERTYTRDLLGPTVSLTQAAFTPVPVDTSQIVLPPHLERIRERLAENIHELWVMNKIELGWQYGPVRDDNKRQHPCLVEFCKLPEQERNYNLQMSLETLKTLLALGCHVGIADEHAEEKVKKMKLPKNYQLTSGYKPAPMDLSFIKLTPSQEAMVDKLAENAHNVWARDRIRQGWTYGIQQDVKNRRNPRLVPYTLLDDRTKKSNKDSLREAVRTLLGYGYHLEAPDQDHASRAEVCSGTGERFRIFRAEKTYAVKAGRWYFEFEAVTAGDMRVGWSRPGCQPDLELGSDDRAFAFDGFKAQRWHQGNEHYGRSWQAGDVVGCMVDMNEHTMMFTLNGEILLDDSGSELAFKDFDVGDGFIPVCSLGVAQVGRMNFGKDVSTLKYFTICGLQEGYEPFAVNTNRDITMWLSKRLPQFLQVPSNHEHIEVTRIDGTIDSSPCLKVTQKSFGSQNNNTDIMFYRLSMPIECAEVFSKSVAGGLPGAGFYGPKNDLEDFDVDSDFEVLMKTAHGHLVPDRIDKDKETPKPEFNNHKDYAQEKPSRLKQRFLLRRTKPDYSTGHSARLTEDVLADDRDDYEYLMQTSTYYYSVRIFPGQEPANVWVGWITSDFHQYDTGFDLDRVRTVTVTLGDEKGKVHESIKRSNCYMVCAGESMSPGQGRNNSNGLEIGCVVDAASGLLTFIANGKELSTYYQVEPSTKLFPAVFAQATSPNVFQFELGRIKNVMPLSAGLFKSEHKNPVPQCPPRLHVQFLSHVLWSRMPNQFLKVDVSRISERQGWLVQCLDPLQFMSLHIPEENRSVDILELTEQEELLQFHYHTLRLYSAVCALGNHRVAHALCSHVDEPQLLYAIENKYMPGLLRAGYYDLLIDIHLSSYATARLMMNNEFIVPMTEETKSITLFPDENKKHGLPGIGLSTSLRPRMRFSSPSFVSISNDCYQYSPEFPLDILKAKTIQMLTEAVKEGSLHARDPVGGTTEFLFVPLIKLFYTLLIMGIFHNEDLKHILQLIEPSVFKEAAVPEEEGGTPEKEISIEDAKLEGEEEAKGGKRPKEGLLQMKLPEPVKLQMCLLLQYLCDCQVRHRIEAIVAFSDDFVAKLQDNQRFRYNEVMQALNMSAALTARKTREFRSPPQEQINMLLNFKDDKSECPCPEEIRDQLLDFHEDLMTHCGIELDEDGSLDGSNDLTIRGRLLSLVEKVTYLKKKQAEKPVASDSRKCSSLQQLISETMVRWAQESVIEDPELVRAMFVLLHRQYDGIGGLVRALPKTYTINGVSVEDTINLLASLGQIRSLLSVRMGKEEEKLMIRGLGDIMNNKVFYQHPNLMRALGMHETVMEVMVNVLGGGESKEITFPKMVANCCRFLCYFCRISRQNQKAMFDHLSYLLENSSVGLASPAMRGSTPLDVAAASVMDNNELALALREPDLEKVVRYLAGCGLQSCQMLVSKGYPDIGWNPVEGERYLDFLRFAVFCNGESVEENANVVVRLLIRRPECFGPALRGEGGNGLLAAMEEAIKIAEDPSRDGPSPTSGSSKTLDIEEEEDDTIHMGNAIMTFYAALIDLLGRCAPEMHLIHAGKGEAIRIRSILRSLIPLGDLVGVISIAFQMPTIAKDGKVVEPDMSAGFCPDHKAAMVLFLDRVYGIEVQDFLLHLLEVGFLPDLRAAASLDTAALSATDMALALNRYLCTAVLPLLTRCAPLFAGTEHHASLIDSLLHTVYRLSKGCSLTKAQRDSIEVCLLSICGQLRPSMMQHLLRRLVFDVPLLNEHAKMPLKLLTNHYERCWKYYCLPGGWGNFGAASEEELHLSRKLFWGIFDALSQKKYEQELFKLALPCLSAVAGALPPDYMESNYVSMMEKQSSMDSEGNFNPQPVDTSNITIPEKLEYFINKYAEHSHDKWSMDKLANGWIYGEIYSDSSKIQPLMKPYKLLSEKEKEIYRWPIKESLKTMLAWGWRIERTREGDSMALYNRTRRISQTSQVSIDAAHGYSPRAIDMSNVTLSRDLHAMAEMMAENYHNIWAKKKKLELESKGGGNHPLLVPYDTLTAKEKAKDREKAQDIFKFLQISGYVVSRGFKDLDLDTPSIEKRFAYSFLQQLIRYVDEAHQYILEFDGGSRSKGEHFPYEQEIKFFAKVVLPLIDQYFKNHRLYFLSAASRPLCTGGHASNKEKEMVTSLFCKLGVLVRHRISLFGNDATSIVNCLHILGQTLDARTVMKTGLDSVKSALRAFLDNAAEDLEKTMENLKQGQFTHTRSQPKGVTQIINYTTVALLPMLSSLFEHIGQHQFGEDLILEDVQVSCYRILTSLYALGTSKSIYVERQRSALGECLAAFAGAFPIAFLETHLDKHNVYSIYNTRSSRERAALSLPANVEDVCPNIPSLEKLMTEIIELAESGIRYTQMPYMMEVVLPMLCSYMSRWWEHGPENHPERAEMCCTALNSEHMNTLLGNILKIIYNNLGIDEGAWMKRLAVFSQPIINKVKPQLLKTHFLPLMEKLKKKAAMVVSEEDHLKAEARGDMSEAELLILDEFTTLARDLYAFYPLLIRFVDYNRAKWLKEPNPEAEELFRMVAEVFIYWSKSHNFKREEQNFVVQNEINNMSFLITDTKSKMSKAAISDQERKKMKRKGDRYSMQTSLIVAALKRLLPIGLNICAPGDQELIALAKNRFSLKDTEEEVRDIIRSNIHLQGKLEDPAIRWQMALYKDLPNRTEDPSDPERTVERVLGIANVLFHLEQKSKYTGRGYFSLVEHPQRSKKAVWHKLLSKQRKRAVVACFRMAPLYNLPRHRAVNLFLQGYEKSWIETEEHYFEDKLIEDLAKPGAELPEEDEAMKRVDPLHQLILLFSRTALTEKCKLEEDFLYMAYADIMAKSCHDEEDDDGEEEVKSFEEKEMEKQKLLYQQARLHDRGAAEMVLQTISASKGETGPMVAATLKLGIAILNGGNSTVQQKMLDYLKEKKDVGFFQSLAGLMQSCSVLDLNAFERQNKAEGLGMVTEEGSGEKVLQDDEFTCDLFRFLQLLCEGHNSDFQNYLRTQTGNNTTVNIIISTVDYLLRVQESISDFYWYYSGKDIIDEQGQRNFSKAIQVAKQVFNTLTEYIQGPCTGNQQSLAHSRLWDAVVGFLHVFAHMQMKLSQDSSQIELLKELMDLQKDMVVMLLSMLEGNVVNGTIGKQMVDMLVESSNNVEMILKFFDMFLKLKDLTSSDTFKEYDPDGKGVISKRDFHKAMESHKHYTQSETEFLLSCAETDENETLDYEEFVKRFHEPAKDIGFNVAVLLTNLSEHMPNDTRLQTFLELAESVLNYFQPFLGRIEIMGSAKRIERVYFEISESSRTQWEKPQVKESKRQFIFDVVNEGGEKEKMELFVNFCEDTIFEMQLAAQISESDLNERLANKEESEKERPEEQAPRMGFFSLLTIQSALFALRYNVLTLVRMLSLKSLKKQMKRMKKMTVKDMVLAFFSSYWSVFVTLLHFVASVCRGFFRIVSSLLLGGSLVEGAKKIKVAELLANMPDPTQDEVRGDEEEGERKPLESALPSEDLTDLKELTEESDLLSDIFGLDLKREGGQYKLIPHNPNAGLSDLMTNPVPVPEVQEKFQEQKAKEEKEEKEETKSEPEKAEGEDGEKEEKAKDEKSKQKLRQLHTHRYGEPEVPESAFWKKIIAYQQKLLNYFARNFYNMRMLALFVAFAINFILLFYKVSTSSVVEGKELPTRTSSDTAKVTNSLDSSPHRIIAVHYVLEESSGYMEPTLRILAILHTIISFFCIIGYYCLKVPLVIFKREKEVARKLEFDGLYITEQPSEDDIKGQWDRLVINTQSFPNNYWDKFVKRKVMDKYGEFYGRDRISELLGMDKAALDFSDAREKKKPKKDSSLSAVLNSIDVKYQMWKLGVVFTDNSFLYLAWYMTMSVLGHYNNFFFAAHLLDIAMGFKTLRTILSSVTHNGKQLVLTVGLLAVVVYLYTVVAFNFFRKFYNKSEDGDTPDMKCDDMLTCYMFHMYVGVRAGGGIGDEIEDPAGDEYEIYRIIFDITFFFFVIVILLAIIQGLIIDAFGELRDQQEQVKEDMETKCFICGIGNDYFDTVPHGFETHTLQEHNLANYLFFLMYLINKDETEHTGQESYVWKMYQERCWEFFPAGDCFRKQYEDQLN
Procedure: All incubations and washes were at 37° C. with 10% CO2.
Glass cover slips with fura 2-AM-filled N2a cells were placed in a submersion chamber on the stage of an upright Olympus BX51 microscope which is coupled to a 2-photon laser imaging system. […] Ca^2+ imaging of individual cells was accomplished using a custom-made video-rate 2-photon imaging system. Laser excitation was provided by 100 fs pulses at 780 nm (80 MHz) from a Ti:sapphire laser (Mai Tai Broadband, Spectra-Physics). The laser beam was scanned by a resonant galvanometer (General Scanning Lumonics), allowing rapid (7.9 kHz) bidirectional scanning in the x-axis, and by a conventional linear galvanometer in the y-axis, to provide a full-frame scan rate of 30 frames/s. The laser beam was focused onto the cells through an Olympus 40× water-immersion objective (numerical aperture 0.8). Emitted fluorescence light was detected by a wide-field photomultiplier (Electron Tubes) to derive a video signal that was captured and analyzed by Video Savant 5.0 software (10 Industries). Further analysis of background-corrected images was performed using MetaMorph software. For clarity, results are expressed as inverse ratios so that increases in [Ca^2+ correspond to increasing ratios. The % change is calculated as [(F0/ΔF)−1]*100 where F0 is the average resting fluorescence at baseline and ΔF is the decrease of fluorescence reflecting Ca^2+ release. Differences between treatment groups were assessed using two-way ANOVA and Scheffe post hoc analysis for significance (p<0.05). Somatic Ca^2+ responses in all cells in the field of view were analyzed (n=8-20), with the nucleus region excluded. All compounds were tested in triplicate.

TG-CRND8 AD mice = test: Chronic dantrolene in TgCRND8 AD mice, CP13 phospho-tau immunostaining; format: in vivo, mouse; conditions: 10 mg/kg IP, 4 weeks
Procedure: Mice are deeply anesthetized with urethane, the thoracic cavity opened, and cannula inserted into the left ventricle of the heart, and a small hole cut into the right atrium. Ice cold saline (3 mL) and then 4% paraformaldehyde (5 mL), or 4% paraformaldehyde/1% glutaraldehyde are perfused through the circulatory system. Following this, the mice are decapitated with sharp scissors and the brain prepared for staining or microscopy.

[4] = chronic oral treatment (10+ months); cited from earlier work
[5] = tested on: AD mouse models (3×Tg-AD and PS1/APP); test: 4-week dantrolene treatment in AD mouse models (3×Tg-AD, APP/PS1): calcium, amyloid, synaptic integrity, RyR2 expression; format: in vivo
Procedure: 3×Tg-AD, TgCRND8, PS1/APP, and nontransgenic (NonTg) J29/C57BL6 control mice were bred in-house. Adult male and female mice 3-5 months old were used. Animals were cared for and used in accordance with protocols approved by the Rosalind Franklin University of Medicine and Science Animal Care and Use Committee. Hippocampal brain slices (300 μm) were prepared as previously described (Briggs et al., Neurobiol. Aging, 2013, 34:1632-1643). Mice were anesthetized with halothane, decapitated, and the brain removed into ice-cold sucrose cutting solution (200 mM sucrose, 1.5 mM KCl, 0.5 mM CaCl2, 4.0 mM MgCl2, 1.0 mM KH2PO4, 25 mM NaHCO3, 10 mM Na-ascorbate, and 20 mM dextrose, equilibrated with 95% O2/5% CO2). Horizontal hippocampal slices were prepared in a Camden Instruments vibratome with the chamber filled with ice-cold sucrose cutting solution and then transferred to and maintained in standard artificial cerebrospinal fluid (aCSF; 130 mM NaCl, 2.5 mM KCl, 2.0 mM CaCl2, 1.2 mM MgSO4, 1.25 mM NaH2PO4, 25 mM NaHCO3, and 10 mM dextrose [305-310 mOsm], equilibrated with 95% O2/5% CO2, pH 7.3-7.4) at 32° C. for at least 1 hour before use. Whole-cell patch-clamp recordings were conducted at room temperature (23° C.) in continuously superfused aCSF (1.5-2.0 mL/min). Patch pipettes (5-7 MO) were filled with intracellular solution (135 mM K-gluconate, 2.0 mM MgCl2, 4.0 mM Na2-ATP, 0.4 mM Na-GTP, 10 mM Na-phosphocreatine, 10 mM HEPES adjusted to pH 7.3 with KOH) plus 50 μM bis-fura-2 hexapotassium (Life Technologies) as fluorescent Ca^2+ sensor. Hippocampal CA1 pyramidal neurons were identified visually via infrared differential interference contrast (IR-DIC) optics, and electrophysiologically by their passive membrane properties and spike frequency accommodation. Membrane potentials were obtained in current-clamp mode, acquired at 10 kHz with a Digidata 1322 A-D converter and Multiclamp 700B amplifier, and recorded and analyzed using pClamp 10.2 (Molecular Devices). Minianalysis 6.0.7 (Synaptosoft, Fort Lee, N.J.) was used to detect and measure spontaneous excitatory postsynaptic potential (sEPSP) events with a minimal amplitude of 0.2 mV and minimal area of 3 mV*msec. See Chakroborty et al., 2012, J. Neurosci. 32(24):8341-53 for further experimental details.
(§1) Voltage-gated Ca^2+ channel (VGCC) responses were elicited by depolarization via current injected through the patch pipette with the current level adjusted to elicit a train of 8-10 spikes.

RyR [6] = test: Sub-chronic in vivo treatment of 3×Tg-AD mice, RyR-evoked calcium responses in CA1 neurons; set-up: species or system mouse; conditions: 10 mg/kg ip, 4 weeks, 10 mM caffeine on acute slices
Procedure: 3×Tg-AD, TgCRND8, PS1/APP, and nontransgenic (NonTg) J29/C57BL6 control mice were bred in-house. Adult male and female mice 3-5 months old were used. Animals were cared for and used in accordance with protocols approved by the Rosalind Franklin University of Medicine and Science Animal Care and Use Committee. Hippocampal brain slices (300 μm) were prepared as previously described (Briggs et al., Neurobiol. Aging, 2013, 34:1632-1643). Mice were anesthetized with halothane, decapitated, and the brain removed into ice-cold sucrose cutting solution (200 mM sucrose, 1.5 mM KCl, 0.5 mM CaCl2, 4.0 mM MgCl2, 1.0 mM KH2PO4, 25 mM NaHCO3, 10 mM Na-ascorbate, and 20 mM dextrose, equilibrated with 95% O2/5% CO2). Horizontal hippocampal slices were prepared in a Camden Instruments vibratome with the chamber filled with ice-cold sucrose cutting solution and then transferred to and maintained in standard artificial cerebrospinal fluid (aCSF; 130 mM NaCl, 2.5 mM KCl, 2.0 mM CaCl2, 1.2 mM MgSO4, 1.25 mM NaH2PO4, 25 mM NaHCO3, and 10 mM dextrose [305-310 mOsm], equilibrated with 95% O2/5% CO2, pH 7.3-7.4) at 32° C. for at least 1 hour before use. […] Membrane potentials were obtained in current-clamp mode, acquired at 10 kHz with a Digidata 1322 A-D converter and Multiclamp 700B amplifier, and recorded and analyzed using pClamp 10.2 (Molecular Devices). […]

[7] = Sub-chronic in vivo treatment of 3×Tg-AD mice, heart weight and body weight; set-up: species or system mouse; conditions: 10 mg/kg ip, 4 weeks
Procedure: Ca^2+ signaling and electrophysiological properties of CA1 pyramidal neurons were studied in hippocampal brain slices according to the protocols disclosed in Example 1. Briefly, 3×Tg-AD mice were treated with either saline (0.9%), CK013 or CK017 for four weeks (10 mg/kg; ip), and then acute hippocampal brain slice preparations were made for the purposes of performing whole cell patch clamp recordings and 2-photon calcium imaging in CA1 pyramidal neurons. The objective was to determine if our compounds could restore normal RyR-mediated calcium signaling in the AD mice and maintain normal membrane physiology.
Also, passive membrane properties such as resting membrane potential and membrane input resistance were not affected by these compounds. […] Additionally, there were no statistically significant differences in the ratio of heart weight:body weight among the treatment groups (Table 4; p>0.05), nor were there differences in absolute body weights or heart weights among the groups (data not shown; […]).

RyR [8] = test: RyR-evoked calcium response in CA1 pyramidal neurons of hippocampal brain slices, acute incubation; format: cell-based, mouse; conditions: 3×Tg-AD hippocampal slices, caffeine, 10 μM, 1 hour incubation
Procedure: 3×Tg-AD, TgCRND8, PS1/APP, and nontransgenic (NonTg) J29/C57BL6 control mice were bred in-house. Adult male and female mice 3-5 months old were used. Animals were cared for and used in accordance with protocols approved by the Rosalind Franklin University of Medicine and Science Animal Care and Use Committee. […] Whole-cell patch-clamp recordings were conducted at room temperature (23° C.) in continuously superfused aCSF (1.5-2.0 mL/min). […] Hippocampal CA1 pyramidal neurons were identified visually via infrared differential interference contrast (IR-DIC) optics, and electrophysiologically by their passive membrane properties and spike frequency accommodation. […] Minianalysis 6.0.7 (Synaptosoft, Fort Lee, N.J.) was used to detect and measure spontaneous excitatory postsynaptic potential (sEPSP) events with a minimal amplitude of 0.2 mV and minimal area of 3 mV*msec.
as §1

logP (Log P (Table 1))	Ca^2+ Inc (Ca^2+ increase over baseline) [3] [fold]	Compound	effect on caffeine-stimulated Ca^2+ release compared with dantrolene [3]	also measured
3.2	2.38	Cc1c(-c2ccc(/C=N/NC(N)=O)o2)ccc([N+](=O)[O-])c1C [RD14]	comparable to dantrolene's effect; also recorded: comparable or superior effects on Ca^2+ release	CNS penetration compared with dantrolene [1]: markedly improved; Kp [1]: 1.6; solubility compared with dantrolene [2]: markedly improved solubility
2.5	1.06	CC(=O)N/N=C/c1ccc(-c2cccc([N+](=O)[O-])c2)o1 [RD09]	block calcium release to a greater degree than dantrolene	
5	>6	O=C(N/N=C/c1ccc(-c2ccc(Br)cc2)o1)c1ccc([N+](=O)[O-])cc1 [RD77]		
	1.96	O=C1CN(/N=C/c2ccc(-c3ccc([N+](=O)[O-])cc3)o2)C(O)=N1 [dantrolene, 1-{[5-(4-nitrophenyl)-2-furyl]methylideneamino} imidazolidine-2,4-dione]		reduction of the evoked RyR-calcium response ([3]; caffeine (10 mM), pre-incubated 30 minutes): over 60%; phospho-tau (CP13) staining, dentate gyrus (TG-CRND8 AD mice): reduces phosphorylated tau; also recorded: significantly reduced; amyloid pathology [4]: increase amyloid pathology; soluble and insoluble Aβ deposition ([5]; 3×Tg-AD and PS1/APP, 4-week treatment, 5-10 mg/kg): significantly reduced; synaptic integrity (synaptophysin/PSD-95 colocalization), synaptic transmission properties ([5]; AD mice, 4-week treatment): restored synaptic transmission properties and synaptic integrity; ER calcium responses (soma, dendrites, dendritic spines) ([5]; AD mice, 4-week treatment, 5-10 mg/kg): returned the exaggerated ER-Ca^2+ release in dendritic spines to NonTg levels; also recorded: normalizes this calcium response; RyR2 mRNA expression levels, hippocampus ([5]; AD-Tg mice, 10 mg/kg, 4 weeks): normalized expression levels of RyR2; reduction of beta amyloid levels (4G8 immunostaining) ([5]; hippocampus and cortex, 4-week treatment): 45%
1.8	1.43	O=C1CN(/N=C/c2ccc(-c3ccccc3)o2)C(=O)N1 [RD05]	block calcium release to a greater degree than dantrolene; also recorded: comparable or superior effects on Ca^2+ release	CNS penetration compared with dantrolene [1]: markedly improved; brain levels relative to those of dantrolene [1]: > 50 times; Kp [1]: 0.5; solubility compared with dantrolene [2]: markedly improved solubility
3	1.38	O=C(N/N=C/c1ccc(-c2cccc([N+](=O)[O-])c2)o1)c1ccccn1 [RD11]	block calcium release to a greater degree than dantrolene	
5.5	>6	O=C(N/N=C/c1ccc(-c2ccc([N+](=O)[O-])cc2)o1)c1ccc(Cl)cc1Cl [RD83]		
4.4	>6	O=C(N/N=C/c1ccc(-c2cccc(Cl)c2Cl)o1)c1ccccn1 [RD91]		
3.4	4.25	CN1CCN(C(=O)N/N=C/c2ccc(-c3ccc([N+](=O)[O-])cc3Cl)o2)CC1 [RD10]		
		O=C(Cc1ccccc1)N/N=C/c1ccc(-c2ccccc2)o1 [CK013]		RyR-evoked calcium responses after chronic treatment (RyR [6]): not different from the NonTg control responses; also recorded: not different from the control NonTg saline treated mice; Ratio of heart weight:body weight [7]: 4.06 × 10^−3; RyR-evoked calcium response in AD neurons (RyR [8]): normalized aberrant RyR-evoked calcium signals; also recorded: significantly reduced to within physiological levels
5.1	>6	O=C(N/N=C/c1ccc(-c2ccc([N+](=O)[O-])cc2Cl)o1)Nc1ccccc1 [RD54]		
		O=C(N/N=C/c1ccc(-c2ccc(Cl)cc2)o1)N/N=C/c1ccc(-c2ccc(Cl)cc2)o1 [CK017]		RyR-evoked calcium responses after chronic treatment (RyR [6]): not different from the NonTg control responses; also recorded: not different from the control NonTg saline treated mice; Ratio of heart weight:body weight [7]: 3.6 × 10^−3; RyR-evoked calcium response in AD neurons (RyR [8]): normalized aberrant RyR-evoked calcium signals; also recorded: significantly reduced to within physiological levels
